Laboratory results published in the supplement of paper PMC8671470.

Tests used:
Experiment in all cases: cell viability (% survival relative to DMSO control); higher = less cytotoxic
Conditions in all cases: 72 h
BV-173 = system: BV-173
Description: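 8x8 drug-combination matrices (0–5000 nM; rosiglitazone and lestaurtinib 0–1000 nM) were run in BV-173 cells for 72 h with CellTiter-Glo read-out. Survival is normalised to DMSO and 10 µM bortezomib and clipped at 100%.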

Mono-Mac-6 = system: Mono-Mac-6
Description: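 8x8 drug-combination matrices (0–5000 nM; rosiglitazone and lestaurtinib 0–1000 nM) were run in Mono-Mac-6 cells for 72 h with CellTiter-Glo read-out. Survival is normalised to DMSO and 10 µM bortezomib and clipped at 100%.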

HL-60 = system: HL-60
Description: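 8x8 drug-combination matrices (0-5000 nM; rosiglitazone and lestaurtinib 0-1000 nM) were run in HL-60 cells for 72 h with a CellTiter-Glo read-out. Survival is normalised to DMSO and 10 µM bortezomib and clipped at 100%. Bliss synergy was analysed in SynergyFinder.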

O=C(C1CC1)N1CC[C@@H](C=C2NNC(=O)N2c2ccc(-c3ccc4occc4c3)cc2)C1 + CS(=O)(=O)N1CCN(Cc2cc3nc(-c4cccc5[nH]ncc45)nc(N4CCOCC4)c3s2)CC1 [Pictilisib]
cell viability [%]
Conditions	drug1 concentration 5 nM	drug1 concentration 10 nM	drug1 concentration 50 nM	drug1 concentration 100 nM	drug1 concentration 500 nM	drug1 concentration 1000 nM	drug1 concentration 5000 nM
BV-173, drug2 concentration 5 nM	> 100	> 100	95	> 100	84.4	77.5	84.8
BV-173, drug2 concentration 10 nM	> 100	> 100	> 100	> 100	95.5	> 100	92.2
BV-173, drug2 concentration 50 nM	> 100	> 100	> 100	> 100	94.4	99.1	59.7
BV-173, drug2 concentration 100 nM	81	> 100	> 100	94.8	94.3	87.4	> 100
BV-173, drug2 concentration 500 nM	> 100	> 100	93.8	> 100	> 100	98.7	89.3
BV-173, drug2 concentration 1000 nM	89.7	99.2	> 100	92.8	80	99.9	78.4
BV-173, drug2 concentration 5000 nM	87.6	92.1	84.8	> 100	75.7	70.6	> 100
HL-60, drug2 concentration 5 nM	93	71.7	66.5	59.9	51.3	56.3	51.5
HL-60, drug2 concentration 10 nM	70	68.5	58.9	60.9	56.7	55.8	52.9
HL-60, drug2 concentration 50 nM	59.4	61.7	54.4	53.3	52.8	53.1	51
HL-60, drug2 concentration 100 nM	60.3	58.5	51.3	51.5	45.6	51.7	52.2
HL-60, drug2 concentration 500 nM	46.9	49	44.4	45.7	34.5	47.1	45
HL-60, drug2 concentration 1000 nM	46.7	50.8	41.3	44.2	48.4	49.9	39.1
HL-60, drug2 concentration 5000 nM	38.6	42.6	40.3	33.2	38.6	43.5	36.2
Mono-Mac-6, drug2 concentration 5 nM	> 100	94.2	88.6	86.5	92.2	81.2	88.3
Mono-Mac-6, drug2 concentration 10 nM	89.9	> 100	85.6	81	78.2	81.2	93.1
Mono-Mac-6, drug2 concentration 50 nM	80.5	> 100	81.7	69.7	74.8	99	68.1
Mono-Mac-6, drug2 concentration 100 nM	63	75.5	91.8	75.3	> 100	94.4	84.6
Mono-Mac-6, drug2 concentration 500 nM	70	83.9	> 100	87.7	73	86.2	81.4
Mono-Mac-6, drug2 concentration 1000 nM	53.7	71	52.4	87.1	71.3	77.1	69.4
Mono-Mac-6, drug2 concentration 5000 nM	51.6	27.5	37.5	48.3	49.9	24.2	49.3

O=C(C1CC1)N1CC[C@@H](C=C2NNC(=O)N2c2ccc(-c3ccc4occc4c3)cc2)C1 + C[C@H](NC(=O)c1sccc1OCc1ccc(Cl)cc1)c1ccccc1 [as1949490]
cell viability [%]
Conditions	drug1 concentration 5 nM	drug1 concentration 10 nM	drug1 concentration 50 nM	drug1 concentration 100 nM	drug1 concentration 500 nM	drug1 concentration 1000 nM	drug1 concentration 5000 nM
BV-173, drug2 concentration 5 nM	> 100	> 100	> 100	> 100	91.8	93.3	80.6
BV-173, drug2 concentration 10 nM	94.1	> 100	> 100	> 100	> 100	> 100	> 100
BV-173, drug2 concentration 50 nM	> 100	> 100	> 100	85	> 100	88.7	96.7
BV-173, drug2 concentration 100 nM	> 100	80.2	> 100	88.5	> 100	96	84.7
BV-173, drug2 concentration 500 nM	85.5	> 100	84.8	> 100	91.2	92.3	77.2
BV-173, drug2 concentration 1000 nM	> 100	87.6	99.3	> 100	80.2	73.6	58.5
BV-173, drug2 concentration 5000 nM	65.2	44.9	73.8	46	44.2	57.2	0
HL-60, drug2 concentration 5 nM	81.9	89	82.7	68	60.7	60.8	51.6
HL-60, drug2 concentration 10 nM	> 100	86.7	79.5	65	58.1	58.4	48.5
HL-60, drug2 concentration 50 nM	99.3	83.4	74.8	57.3	59.3	51.9	42.1
HL-60, drug2 concentration 100 nM	95.7	83.4	68.3	53.2	56.1	48.8	37.7
HL-60, drug2 concentration 500 nM	88.6	78.1	63.5	56	46.3	49.6	38.5
HL-60, drug2 concentration 1000 nM	86.2	76.1	60.1	46.8	43.6	44.1	35.8
HL-60, drug2 concentration 5000 nM	80.8	72.6	57.6	43.4	44.8	40.9	33.3
Mono-Mac-6, drug2 concentration 5 nM	77.9	> 100	94.8	82.5	> 100	88.6	91.3
Mono-Mac-6, drug2 concentration 10 nM	> 100	> 100	> 100	84.4	> 100	98.4	> 100
Mono-Mac-6, drug2 concentration 50 nM	> 100	> 100	> 100	> 100	88.9	91.8	> 100
Mono-Mac-6, drug2 concentration 100 nM	90	96.4	> 100	94.7	77.3	> 100	69.7
Mono-Mac-6, drug2 concentration 500 nM	90.5	78	74.2	> 100	> 100	> 100	80.7
Mono-Mac-6, drug2 concentration 1000 nM	95	> 100	97.3	> 100	77.3	91.1	75.6
Mono-Mac-6, drug2 concentration 5000 nM	79	73.5	> 100	96.3	73.3	91.3	54.6
